Converted amounts (≈) assume the structure as drawn.
How the values were obtained:
Klebsiella pneumoniae [1] = assay: Antibacterial activity against Klebsiella pneumoniae D expressing CTX-M group 1 beta-lactamase by Etest method in presence of clavulanic acid; assay type: functional
Klebsiella pneumoniae [2] = assay: Antibacterial activity against Klebsiella pneumoniae C expressing CTX-M group 1 beta-lactamase by Etest method in presence of clavulanic acid; assay type: functional
Klebsiella pneumoniae [3] = assay: Antibacterial activity against Klebsiella pneumoniae B expressing CTX-M group 1 beta-lactamase by Etest method in presence of clavulanic acid; assay type: functional
Klebsiella pneumoniae [4] = assay: Antibacterial activity against Klebsiella pneumoniae expressing CTX-M group 1 beta-lactamase by Etest method; assay type: functional
Klebsiella pneumoniae [5] = assay: Antibacterial activity against Klebsiella pneumoniae A expressing CTX-M group 1 beta-lactamase by Etest method in presence of clavulanic acid; assay type: functional
Klebsiella pneumoniae [6] = assay: Antibacterial activity against Klebsiella pneumoniae D expressing CTX-M group 1 beta-lactamase by Etest method; assay type: functional
Klebsiella pneumoniae [7] = assay: Antibacterial activity against Klebsiella pneumoniae B expressing CTX-M group 1 beta-lactamase by Etest method; assay type: functional
Klebsiella pneumoniae [8] = assay: Antibacterial activity against Klebsiella pneumoniae C expressing CTX-M group 1 beta-lactamase by Etest method; assay type: functional
Klebsiella pneumoniae [9] = assay: Antibacterial activity against Klebsiella pneumoniae A expressing CTX-M group 1 beta-lactamase by Etest method; assay type: functional
Escherichia coli [10] = assay: Antibacterial activity against Escherichia coli TrC C expressing Klebsiella pneumoniae C blaCTX-M beta-lactamase by Etest method in presence of clavulanic acid
Escherichia coli [11] = assay: Antibacterial activity against Escherichia coli TrC C expressing Klebsiella pneumoniae C blaCTX-M beta-lactamase by Etest method; assay type: functional
Escherichia coli [12] = assay: Antibacterial activity against Escherichia coli TrC B expressing Klebsiella pneumoniae B blaCTX-M beta-lactamase by Etest method in presence of clavulanic acid
Escherichia coli [13] = assay: Antibacterial activity against Escherichia coli TrC B expressing Klebsiella pneumoniae B blaCTX-M beta-lactamase by Etest method; assay type: functional
Escherichia coli [14] = assay: Antibacterial activity against Escherichia coli TrC A expressing Klebsiella pneumoniae A blaCTX-M beta-lactamase by Etest method in presence of clavulanic acid
Escherichia coli [15] = assay: Antibacterial activity against Escherichia coli TrC A expressing Klebsiella pneumoniae A blaCTX-M beta-lactamase by Etest method; assay type: functional
Escherichia coli [16] = assay: Antibacterial activity against rifampicin resistant Escherichia coli J53-2 by Etest method
Escherichia coli [17] = assay: Antibacterial activity against rifampicin resistant Escherichia coli J53-2 by Etest method in presence of clavulanic acid; assay type: functional
Klebsiella pneumoniae [18] = assay: Antibacterial activity against Klebsiella pneumoniae expressing CTX-M group 1 beta-lactamase by Etest method in presence of clavulanic acid; assay type: functional
Escherichia coli [19] = assay: Antibacterial activity against Escherichia coli TrC C expressing Klebsiella pneumoniae C blaCTX-M beta-lactamase by Etest method in presence of Tazobactam; assay type: functional
Escherichia coli [20] = assay: Antibacterial activity against Escherichia coli TrC B expressing Klebsiella pneumoniae B blaCTX-M beta-lactamase by Etest method in presence of Tazobactam; assay type: functional
Escherichia coli [21] = assay: Antibacterial activity against Escherichia coli TrC A expressing Klebsiella pneumoniae A blaCTX-M beta-lactamase by Etest method in presence of Tazobactam; assay type: functional
Escherichia coli [22] = assay: Antibacterial activity against rifampicin resistant Escherichia coli J53-2 by Etest method in presence of Tazobactam; assay type: functional
Klebsiella pneumoniae [23] = assay: Antibacterial activity against Klebsiella pneumoniae C expressing CTX-M group 1 beta-lactamase by Etest method in presence of Tazobactam; assay type: functional
Klebsiella pneumoniae [24] = assay: Antibacterial activity against Klebsiella pneumoniae B expressing CTX-M group 1 beta-lactamase by Etest method in presence of Tazobactam; assay type: functional
Klebsiella pneumoniae [25] = assay: Antibacterial activity against Klebsiella pneumoniae A expressing CTX-M group 1 beta-lactamase by Etest method in presence of Tazobactam; assay type: functional

Work on CO/N=C(\C(=O)N[C@@H]1C(=O)N2C(C(=O)O)=C(COC(C)=O)CS[C@H]12)c1csc(N)n1 [CEFOTAXIME] yielded an MIC (Klebsiella pneumoniae [1]) of 0.047 µg/mL, an MIC50 (Klebsiella pneumoniae [1]) of 0.047 µg/mL and an MIC90 (Klebsiella pneumoniae [1]) of 0.125 µg/mL. For the same molecule, the MIC (Klebsiella pneumoniae [2]) was 0.047 µg/mL, the MIC50 (Klebsiella pneumoniae [2]) was 0.125 µg/mL and the MIC90 (Klebsiella pneumoniae [2]) was greater than 1 µg/mL. For the same molecule, the MIC (Klebsiella pneumoniae [3]) was 0.047 µg/mL, the MIC50 (Klebsiella pneumoniae [3]) was 0.094 µg/mL and the MIC90 (Klebsiella pneumoniae [3]) was 0.094 µg/mL. The MIC (Klebsiella pneumoniae [4]) was 48 µg/mL (≈ 105 µM), the MIC50 (Klebsiella pneumoniae [4]) was greater than 256 µg/mL and the MIC90 (Klebsiella pneumoniae [4]) was greater than 256 µg/mL. The MIC (Klebsiella pneumoniae [5]) was 0.023 µg/mL, the MIC50 (Klebsiella pneumoniae [5]) was 0.023 µg/mL and the MIC90 (Klebsiella pneumoniae [5]) was 0.19 µg/mL. For the same molecule, the MIC (Klebsiella pneumoniae [6]) was greater than 256 µg/mL, the MIC50 (Klebsiella pneumoniae [6]) was greater than 256 µg/mL and the MIC90 (Klebsiella pneumoniae [6]) was greater than 256 µg/mL. It also gave an MIC (Klebsiella pneumoniae [7]) of 96 µg/mL (≈ 211 µM), an MIC50 (Klebsiella pneumoniae [7]) greater than 256 µg/mL and an MIC90 (Klebsiella pneumoniae [7]) greater than 256 µg/mL. For the same molecule, the MIC (Klebsiella pneumoniae [8]) was greater than 256 µg/mL, the MIC50 (Klebsiella pneumoniae [8]) was greater than 256 µg/mL and the MIC90 (Klebsiella pneumoniae [8]) was greater than 256 µg/mL. The MIC (Klebsiella pneumoniae [9]) was 64 µg/mL (≈ 141 µM), the MIC50 (Klebsiella pneumoniae [9]) was greater than 256 µg/mL and the MIC90 (Klebsiella pneumoniae [9]) was greater than 256 µg/mL. It also gave an MIC (Escherichia coli [10]) of 0.125 µg/mL, an MIC (Escherichia coli [11]) of 256 µg/mL (≈ 562 µM) and an MIC (Escherichia coli [12]) of 0.125 µg/mL. The MIC (Escherichia coli [13]) was 256 µg/mL (≈ 562 µM), the MIC (Escherichia coli [14]) was 0.125 µg/mL and the MIC (Escherichia coli [15]) was 256 µg/mL (≈ 562 µM). It also gave an MIC (Escherichia coli [16]) of 0.25 µg/mL (≈ 0.549 µM), an MIC (Escherichia coli [17]) of no more than 0.06 µg/mL and an MIC (Klebsiella pneumoniae [18]) of 0.032 µg/mL. The MIC50 (Klebsiella pneumoniae [18]) was 0.047 µg/mL and the MIC90 (Klebsiella pneumoniae [18]) was greater than 1 µg/mL.

For CC(C)(O/N=C(\C(=O)N[C@@H]1C(=O)N2C(C(=O)[O-])=C(C[n+]3ccccc3)CS[C@H]12)c1csc(N)n1)C(=O)O [CEFTAZIDIME], the MIC (Klebsiella pneumoniae [1]) was 0.19 µg/mL, the MIC50 (Klebsiella pneumoniae [1]) was 0.38 µg/mL and the MIC90 (Klebsiella pneumoniae [1]) was 0.5 µg/mL. It also gave an MIC (Klebsiella pneumoniae [2]) of 0.38 µg/mL, an MIC50 (Klebsiella pneumoniae [2]) of 0.75 µg/mL and an MIC90 (Klebsiella pneumoniae [2]) of 1 µg/mL. It also gave an MIC (Klebsiella pneumoniae [3]) of 0.25 µg/mL, an MIC50 (Klebsiella pneumoniae [3]) of 0.38 µg/mL and an MIC90 (Klebsiella pneumoniae [3]) of 0.5 µg/mL. It also gave an MIC (Klebsiella pneumoniae [4]) of 4 µg/mL (≈ 7.32 µM), an MIC50 (Klebsiella pneumoniae [4]) of 48 µg/mL (≈ 87.8 µM) and an MIC90 (Klebsiella pneumoniae [4]) of 128 µg/mL (≈ 234 µM). It also gave an MIC (Klebsiella pneumoniae [5]) of 0.19 µg/mL, an MIC50 (Klebsiella pneumoniae [5]) of 0.25 µg/mL and an MIC90 (Klebsiella pneumoniae [5]) of 0.5 µg/mL. The MIC (Klebsiella pneumoniae [6]) was 24 µg/mL (≈ 43.9 µM), the MIC50 (Klebsiella pneumoniae [6]) was 48 µg/mL (≈ 87.8 µM) and the MIC90 (Klebsiella pneumoniae [6]) was 128 µg/mL (≈ 234 µM). The MIC (Klebsiella pneumoniae [7]) was 24 µg/mL (≈ 43.9 µM), the MIC50 (Klebsiella pneumoniae [7]) was 32 µg/mL (≈ 58.5 µM) and the MIC90 (Klebsiella pneumoniae [7]) was 64 µg/mL (≈ 117 µM). For the same molecule, the MIC (Klebsiella pneumoniae [8]) was 16 µg/mL (≈ 29.3 µM), the MIC50 (Klebsiella pneumoniae [8]) was 192 µg/mL (≈ 351 µM) and the MIC90 (Klebsiella pneumoniae [8]) was greater than 256 µg/mL. The MIC (Klebsiella pneumoniae [9]) was 16 µg/mL (≈ 29.3 µM), the MIC50 (Klebsiella pneumoniae [9]) was 32 µg/mL (≈ 58.5 µM) and the MIC90 (Klebsiella pneumoniae [9]) was 96 µg/mL (≈ 176 µM). For the same molecule, the MIC (Escherichia coli [10]) was 0.5 µg/mL, the MIC (Escherichia coli [11]) was 128 µg/mL (≈ 234 µM) and the MIC (Escherichia coli [12]) was 0.5 µg/mL. For the same molecule, the MIC (Escherichia coli [13]) was 64 µg/mL (≈ 117 µM), the MIC (Escherichia coli [14]) was 0.5 µg/mL and the MIC (Escherichia coli [15]) was 32 µg/mL (≈ 58.5 µM). For the same molecule, the MIC (Escherichia coli [16]) was 0.5 µg/mL (≈ 0.915 µM), the MIC (Escherichia coli [17]) was 0.25 µg/mL and the MIC (Klebsiella pneumoniae [18]) was 0.125 µg/mL. The MIC50 (Klebsiella pneumoniae [18]) was 0.25 µg/mL and the MIC90 (Klebsiella pneumoniae [18]) was greater than 4 µg/mL.

C[C@]1(Cn2ccnn2)[C@H](C(=O)O)N2C(=O)C[C@H]2S1(=O)=O [TAZOBACTAM] gave an MIC (Escherichia coli [19]) of 16 µg/mL, an MIC (Escherichia coli [20]) of 16 µg/mL and an MIC (Escherichia coli [21]) of 4 µg/mL. For the same molecule, the MIC (Escherichia coli [22]) was 4 µg/mL, the MIC (Klebsiella pneumoniae [23]) was greater than 64 µg/mL and the MIC (Klebsiella pneumoniae [24]) was greater than 64 µg/mL. The MIC (Klebsiella pneumoniae [25]) was 4 µg/mL.
